Assay results: US11857661B2, “Anti-dandruff composition” (Kancor Ingredients Ltd, priority 2018, dated 2024)

What was measured:
[1] = tested on: Malassezia furfur CBS 1878; assay: Minimum inhibitory concentration, broth dilution; format: cell-based; details: M. furfur CBS 1878; for minimum inhibition concentration (MIC) value: classic broth dilution protocol
Excerpt: Inhibition is defined as giving less than 20% growth compared to a control, as determined by spectrophotometric optical density (OD) reading at 620 nm, using the formula % of growth=[(ODproduct−OCabsorbance-control)]/(ODpositive growth-control).
(§1) As noted above, the anti-dandruff active portion of the anti-dandruff composition comprises (or consists essentially of) a combination of at least two of the three described anti-dandruff actives (i.e., the punicalagin composition, the first monoterpenoid composition, and the second monoterpenoid composition). The combinations are based on the additive or synergistic relationship between the individual anti-dandruff actives. Inhibition testing of the individual anti-dandruff actives to determine MIC levels followed the principles and general methods disclosed in C. Lens-Lisbonne, et al. “Methods for the evaluation of antibacterial activity of essential oils: applications to essences of thyme and cinnamon,” J. Pharm. Belg., 1987, 42(5): 297-302; and C. Lisbonne “Evaluation of bacteriostatic activity of essential oils and their components,” Doctoral Thesis, Pharmacy Faculty, Marseille, F R 1988. Interactions of bi-component mixtures (Fractional Inhibitory Concentration) were evaluated in accordance with the method described by J. L. Pons et al., “Evaluation of antimicrobial interactions between chlorhexidine, quaternary ammonium compounds, preservatives and excipients,” J. Appl. Bacteriol., 1992, 73, 395-400, to assess their additive or synergistic effects.
Briefly, as is commonly known by those skilled in the art of the instant disclosure, assessment of Malassezia furfur inhibition may be accomplished following standard and accepted practices, such as that described in U.S. Patent Application Publication No. 2008/0249186. Accordingly, an external testing laboratory performed a series of against Malassezia furfur to evaluate antimicrobial activity and interactions (see Lens, et al. “Methods for the evaluation of antimicrobial activity of essential oils,” J. Pharm. Belg. 1987). Inhibitory activity testing was conducted by mixing 100 μl of various dilutions of the test product at a double concentration with an equal volume (100 μl) of a double strength Difco™ Sabouraud dextrose broth supplemented with olive oil, inoculated between 2 to 6×10^5 cfu/mL. After incubation (24-72 hours, at 32.5° C.±2.5° C.), a spectrophotometric reading at 620 nm is performed and the percentage of growth calculated from optical density (OD) measuring each concentration with respect to a positive growth control according to the following equation: % of growth=[ODproduct−ODabsorbance-control)]/(ODpositive growth-control).
Each concentration was tested in triplicate, and two assays were performed per product. The positive growth control consisted of 100 μl 1% agar solution mixed with 100 μl of inoculated broth.

[2] = tested on: Malassezia furfur CBS 1878; assay: Association testing, checkerboard titration (FIC index); format: cell-based; details: M. furfur CBS 1878; sample B alone
Excerpt: as §1
Study of Associations. After obtaining the MIC levels for each of the anti-dandruff actives by broth dilution method, a checkerboard titration technique was performed to assess the synergistic activity of the combinations. In order to evaluate the activity of the combinations of the anti-dandruff actives, a Fractional Inhibitory Concentration index (FICindex) was calculated: (FICindex)=FIC^A+FIC^B, where FIC^A and FIC^B represent the minimum concentrations inhibiting the M. furfur growth for anti-dandruff actives A and B, respectively. And FIC^A=MIC^Acombination/MIC^Aalone, and FIC^B=MIC^Bcombination/MIC^Balone.] A mean FIC index was calculated based on the following equation: FICindex=FIC^A+FIC^B. Synergism is defined as FIC≤0.75; additive as FIC˜1; indifference as 1<FIC≤2; and antagonism is defined as FIC>2, as reported by J. L. Pons; N. Bonnaveiro; J. Chevalier; and A. Crémieux, “Evaluation of antimicrobial interactions between chlorhexidine, quaternary ammonium compounds, preservatives and excipients,” J. Appl. Bacteriology, 1992, 73(5), 395-400.

minimum inhibition concentration (MIC) value [1] [%]	MIC B Alone % [2] [%]	Molecule	Minimum Inhibitory Concentration, Test 1 [1] [%]	Minimum Inhibitory Concentration, Test 2 [1] [%]
0.5	0.5	O=c1oc2c(O)c(O)cc3c(=O)oc4c(O)c(O)cc1c4c23 [EA, Ellagic Acid]	0.5	0.5
> 1	>1	CC1=CCC(C(C)C)=CC1 [GTP, gamma-terpinene]	–	–
0.5	0.5	Cc1ccc(C(C)C)cc1 [PCY, para-cymene]	–	–
0.05	0.05	Cc1ccc(C(C)C)c(O)c1 [TML, thymol]	–	–

Molecule	minimum inhibition concentration (MIC) value [1] [%]	MIC B Alone % [2] [%]	Minimum Inhibitory Concentration, Test 1 [1] [%]	Minimum Inhibitory Concentration, Test 2 [1] [%]
Punicalagins A&B	0.05	0.05	0.05	0.05
